Test system: MV-4-11 cells
Experiment: Gene expression microarray analysis (Affymetrix PrimeView) and GSEA
Type: cell-based, human
Design: RFU PODN (11730768_x_at) / Fold change /veh PODN (11730768_x_at) / RFU LINC00158 (11744669_a_at) / Fold change /veh LINC00158 (11744669_a_at) / RFU DUSP10 (11751237_a_at) / Fold change /veh DUSP10 (11751237_a_at) / RFU ID3 (11757404_x_at) / Fold change /veh ID3 (11757404_x_at) / RFU PLEKHG5 (11737974_s_at) / Fold change /veh PLEKHG5 (11737974_s_at) / RFU LRRC4B (11730491_at) / Fold change /veh LRRC4B (11730491_at) / RFU GIMAP4 (11747438_a_at) / Fold change /veh GIMAP4 (11747438_a_at) / RFU KRT8 (11758183_x_at) / Fold change /veh KRT8 (11758183_x_at) / RFU CNN1 (11734310_a_at) / Fold change /veh CNN1 (11734310_a_at) / RFU VPS37D (11726825_at) / Fold change /veh VPS37D (11726825_at) / RFU C10orf10 (11716522_x_at) / Fold change /veh C10orf10 (11716522_x_at) / RFU KIR2DL2 /// KIR2DL4 /// KIR2DL5A /// KIR2DL5B /// KIR2DS1 /// KIR2DS2 /// KIR2DS3 /// KIR2DS4 /// KIR3DL3 /// KIR3DL3 /// KIR3DS1 (11738374_at) / Fold change /veh KIR2DL2 /// KIR2DL4 /// KIR2DL5A /// KIR2DL5B /// KIR2DS1 /// KIR2DS2 /// KIR2DS3 /// KIR2DS4 /// KIR3DL3 /// KIR3DL3 /// KIR3DS1 (11738374_at) / RFU C1QL1 (11718748_at) / Fold change /veh C1QL1 (11718748_at) / RFU TMPRSS4 (11747572_a_at) / Fold change /veh TMPRSS4 (11747572_a_at) / RFU HAMP (11756126_x_at) / Fold change /veh HAMP (11756126_x_at) / RFU RNFT2 (11725882_a_at) / Fold change /veh RNFT2 (11725882_a_at) / RFU NR4A2 (11747474_a_at) / Fold change /veh NR4A2 (11747474_a_at) / RFU ABCC12 (11746883_a_at) / Fold change /veh ABCC12 (11746883_a_at) / RFU TMEM136 (11760407_x_at) / Fold change /veh TMEM136 (11760407_x_at) / RFU CLDN22 /// WWC2 (11732394_at) / Fold change /veh CLDN22 /// WWC2 (11732394_at) / RFU HLA-DPB1 (11760878_x_at) / Fold change /veh HLA-DPB1 (11760878_x_at) / RFU SPINT1 (11716480_a_at) / Fold change /veh SPINT1 (11716480_a_at) / RFU GAP43 (11754022_s_at) / Fold change /veh GAP43 (11754022_s_at) / RFU A4GNT (11735810_at) / Fold change /veh A4GNT (11735810_at) / RFU PRB3 (11715151_x_at) / Fold change /veh PRB3 (11715151_x_at) / RFU TUBB4B (11761932_at) / Fold change /veh TUBB4B (11761932_at) / RFU CAPN14 (11732068_a_at) / Fold change /veh CAPN14 (11732068_a_at) / RFU TMCC2 (11721928_a_at) / Fold change /veh TMCC2 (11721928_a_at) / RFU IRGQ (11745062_a_at) / Fold change /veh IRGQ (11745062_a_at) / RFU FAM174B (11720279_a_at) / Fold change /veh FAM174B (11720279_a_at) / RFU TMPRSS4 (11748680_a_at) / Fold change /veh TMPRSS4 (11748680_a_at) / RFU FAM212B (11763350_a_at) / Fold change /veh FAM212B (11763350_a_at) / RFU PLEKHG5 (11743358_a_at) / Fold change /veh PLEKHG5 (11743358_a_at) / RFU ZSCAN30 (11745921_a_at) / Fold change /veh ZSCAN30 (11745921_a_at) / RFU CMKLR1 (11741424_a_at) / Fold change /veh CMKLR1 (11741424_a_at) / RFU LOC101060620 /// MAPK8IP1 (11723275_at) / Fold change /veh LOC101060620 /// MAPK8IP1 (11723275_at) / RFU SPTSSB (11747773_x_at) / Fold change /veh SPTSSB (11747773_x_at) / RFU PRSS12 (11739890_at) / Fold change /veh PRSS12 (11739890_at) / RFU BIN1 (11741810_x_at) / Fold change /veh BIN1 (11741810_x_at) / RFU WNT11 (11732464_a_at) / Fold change /veh WNT11 (11732464_a_at) / RFU C10orf10 (11716521_a_at) / Fold change /veh C10orf10 (11716521_a_at) / RFU C5orf56 (11738089_at) / Fold change /veh C5orf56 (11738089_at) / RFU CYB561 (11721691_x_at) / Fold change /veh CYB561 (11721691_x_at) / RFU ANKRD19P (11752326_a_at) / Fold change /veh ANKRD19P (11752326_a_at) / RFU OR2T12 /// OR2T33 /// OR2T8 (11738714_s_at) / Fold change /veh OR2T12 /// OR2T33 /// OR2T8 (11738714_s_at) / RFU VCAN (11748164_a_at) / Fold change /veh VCAN (11748164_a_at) / RFU JSRP1 (11732532_at) / Fold change /veh JSRP1 (11732532_at) / RFU KRTAP10-11 (11738290_x_at) / Fold change /veh KRTAP10-11 (11738290_x_at) / RFU MYO3A (11730013_a_at) / Fold change /veh MYO3A (11730013_a_at) / RFU EBF3 (11725865_a_at) / Fold change /veh EBF3 (11725865_a_at) / RFU CAMK2N1 (11719241_x_at) / Fold change /veh CAMK2N1 (11719241_x_at) / RFU C5orf56 (11738088_a_at) / Fold change /veh C5orf56 (11738088_a_at) / RFU OLFML3 (11715873_a_at) / Fold change /veh OLFML3 (11715873_a_at) / RFU LOC100653217 /// NTM (11731650_a_at) / Fold change /veh LOC100653217 /// NTM (11731650_a_at) / RFU MAPK11 (11762145_a_at) / Fold change /veh MAPK11 (11762145_a_at) / RFU FIZ1 (11724087_x_at) / Fold change /veh FIZ1 (11724087_x_at) / RFU OASL (11726364_x_at) / Fold change /veh OASL (11726364_x_at) / RFU SOX15 (11748057_x_at) / Fold change /veh SOX15 (11748057_x_at) / RFU CD79A (11719716_a_at) / Fold change /veh CD79A (11719716_a_at) / RFU HIST1H1D (11736915_at) / Fold change /veh HIST1H1D (11736915_at) / RFU CASKIN2 (11723855_a_at) / Fold change /veh CASKIN2 (11723855_a_at) / RFU LOC730098 (11760151_x_at) / Fold change /veh LOC730098 (11760151_x_at) / RFU OR4N2 (11742367_at) / Fold change /veh OR4N2 (11742367_at) / RFU PRRT2 (11749266_a_at) / Fold change /veh PRRT2 (11749266_a_at) / RFU SNX32 (11753110_a_at) / Fold change /veh SNX32 (11753110_a_at) / RFU CDHR5 (11726645_a_at) / Fold change /veh CDHR5 (11726645_a_at) / RFU RCAN1 (11760418_a_at) / Fold change /veh RCAN1 (11760418_a_at) / RFU FAM167A (11723789_a_at) / Fold change /veh FAM167A (11723789_a_at) / RFU FAM26E (11764081_at) / Fold change /veh FAM26E (11764081_at) / RFU ISYNA1 (11749810_s_at) / Fold change /veh ISYNA1 (11749810_s_at) / RFU ACY1 (11761880_at) / Fold change /veh ACY1 (11761880_at) / RFU 11764098_at / Fold change /veh 11764098_at / RFU SAMD14 (11745864_x_at) / Fold change /veh SAMD14 (11745864_x_at) / RFU NPB (11741838_a_at) / Fold change /veh NPB (11741838_a_at) / RFU TMPRSS6 (11731388_a_at) / Fold change /veh TMPRSS6 (11731388_a_at) / RFU KRTAP10-2 (11738614_at) / Fold change /veh KRTAP10-2 (11738614_at) / RFU ARHGAP8 /// PRR5-ARHGAP8 (11727945_x_at) / Fold change /veh ARHGAP8 /// PRR5-ARHGAP8 (11727945_x_at) / RFU KRTAP5-7 /// NADSYN1 (11734609_at) / Fold change /veh KRTAP5-7 /// NADSYN1 (11734609_at) / RFU RASL12 (11751679_a_at) / Fold change /veh RASL12 (11751679_a_at) / RFU CDKN2B (11736163_a_at) / Fold change /veh CDKN2B (11736163_a_at) / RFU PRF1 (11729649_at) / Fold change /veh PRF1 (11729649_at) / RFU, ZNF638 /// ZNF638-IT1 / Fold change vs veh, ZNF638 /// ZNF638-IT1 / RFU, PANK3 / Fold change vs veh, PANK3 / RFU, SH3YL1 / Fold change vs veh, SH3YL1 / RFU, ZEB2 / Fold change vs veh, ZEB2 / RFU, NRIP1 / Fold change vs veh, NRIP1 / RFU, PTTG1IP / Fold change vs veh, PTTG1IP / RFU, CAPN2 / Fold change vs veh, CAPN2 / RFU, MED14 / Fold change vs veh, MED14 / RFU, SNORA58 / Fold change vs veh, SNORA58 / RFU, C1orf63 / Fold change vs veh, C1orf63 / RFU, LRRFIP1 / Fold change vs veh, LRRFIP1 / RFU, NDUFAF7 / Fold change vs veh, NDUFAF7 / RFU, SLC12A2 / Fold change vs veh, SLC12A2 / RFU, IBTK / Fold change vs veh, IBTK / RFU, ESF1 / Fold change vs veh, ESF1 / Fold change vs veh, TMEM50B / RFU, TAOK1 / Fold change vs veh, TAOK1 / RFU, ACBD3 / Fold change vs veh, ACBD3 / RFU, TMA16 / Fold change vs veh, TMA16 / RFU, RWDD3 / Fold change vs veh, RWDD3 / RFU, BCAT1 / Fold change vs veh, BCAT1 / RFU, EDEM3 / Fold change vs veh, EDEM3 / RFU, TMEM33 / Fold change vs veh, TMEM33 / RFU, WDR75 / Fold change vs veh, WDR75 / RFU, AHCTF1 / Fold change vs veh, AHCTF1 / RFU, TFRC / Fold change vs veh, TFRC / RFU, ZDHHC17 / Fold change vs veh, ZDHHC17 / RFU, NOM1 / Fold change vs veh, NOM1 / RFU, ARL8B / Fold change vs veh, ARL8B / RFU, ZBTB11 / Fold change vs veh, ZBTB11 / RFU, TAMM41 / Fold change vs veh, TAMM41 / RFU, KIAA1704 /// LOC100996395 / Fold change vs veh, KIAA1704 /// LOC100996395 / RFU, ING1 / Fold change vs veh, ING1 / RFU, TRMT61B / Fold change vs veh, TRMT61B / RFU, FUBP3 / Fold change vs veh, FUBP3 / RFU, TP53 / Fold change vs veh, TP53 / RFU, TNKS2 / Fold change vs veh, TNKS2 / RFU, ZFP14 / Fold change vs veh, ZFP14 / RFU, ACTR2 / Fold change vs veh, ACTR2 / RFU, PPP3R1 / Fold change vs veh, PPP3R1 / RFU, PIK3R1 / Fold change vs veh, PIK3R1 / RFU, HNRNPA1 / Fold change vs veh, HNRNPA1 / RFU, RNF170 / Fold change vs veh, RNF170 / RFU, ZNF28 / Fold change vs veh, ZNF28 / RFU, RNGTT / Fold change vs veh, RNGTT / RFU, OGT / Fold change vs veh, OGT / RFU, BRD1 / Fold change vs veh, BRD1 / RFU, MARS / Fold change vs veh, MARS / RFU, ZNF655 / Fold change vs veh, ZNF655 / RFU, FAHD1 / Fold change vs veh, FAHD1 / RFU, BDP1 / Fold change vs veh, BDP1 / RFU, LRRCC1 / Fold change vs veh, LRRCC1 / RFU, ARID1A / Fold change vs veh, ARID1A / RFU, ZNF146 / Fold change vs veh, ZNF146 / RFU, ZNF330 / Fold change vs veh, ZNF330 / RFU, GPN3 / Fold change vs veh, GPN3 / RFU, C9orf123 / Fold change vs veh, C9orf123 / RFU, N4BP2L2 / Fold change vs veh, N4BP2L2 / RFU, ARFIP1 / Fold change vs veh, ARFIP1 / RFU, FAM179B / Fold change vs veh, FAM179B / RFU, BCL10 / Fold change vs veh, BCL10 / RFU, UHRF1BP1L / Fold change vs veh, UHRF1BP1L / RFU, BET1 / Fold change vs veh, BET1 / RFU, CNOT2 / Fold change vs veh, CNOT2 / RFU, ZNF268 / Fold change vs veh, ZNF268 / Fold change vs veh, ZNF507 / RFU, DGCR2 / Fold change vs veh, DGCR2 / RFU, WDSUB1 / Fold change vs veh, WDSUB1 / Fold change vs veh, HSP90B1 /// MIR3652 / RFU, ADSS / Fold change vs veh, ADSS / RFU, GK / Fold change vs veh, GK / RFU, ZNF148 / Fold change vs veh, ZNF148 / RFU, TAF9 / Fold change vs veh, TAF9 / RFU, SLC1A5 / Fold change vs veh, SLC1A5 / RFU, SLMO2 / Fold change vs veh, SLMO2 / RFU, ABCC4 / Fold change vs veh, ABCC4 / RFU, LOC101060439 /// RAP1B / Fold change vs veh, LOC101060439 /// RAP1B / RFU, RFX7 / Fold change vs veh, RFX7 / RFU, GTPBP10 / Fold change vs veh, GTPBP10 / RFU, CNEP1R1 / Fold change vs veh, CNEP1R1 / RFU, BIVM-ERCC5 /// ERCC5 / Fold change vs veh, BIVM-ERCC5 /// ERCC5 / RFU, ILF3 / Fold change vs veh, ILF3 / RFU 11762660_at / Fold change /veh 11762660_at / RFU VCAN (11757783_s_at) / Fold change /veh VCAN (11757783_s_at) / RFU DDX43 (11728927_at) / Fold change /veh DDX43 (11728927_at) / RFU KRT8 (11758188_x_at) / Fold change /veh KRT8 (11758188_x_at) / RFU NKD1 (11759106_at) / Fold change /veh NKD1 (11759106_at) / RFU SRD5A1 (11742802_a_at) / Fold change /veh SRD5A1 (11742802_a_at) / RFU TPSAB1 /// TPSB2 (11721975_s_at) / Fold change /veh TPSAB1 /// TPSB2 (11721975_s_at) / RFU GSTM3 (11746129_a_at) / Fold change /veh GSTM3 (11746129_a_at) / RFU IL23R (11737362_x_at) / Fold change /veh IL23R (11737362_x_at) / RFU TMEM51 (11727254_a_at) / Fold change /veh TMEM51 (11727254_a_at) / RFU PIWIL2 (11732686_x_at) / Fold change /veh PIWIL2 (11732686_x_at) / RFU ORM1 (11744905_x_at) / Fold change /veh ORM1 (11744905_x_at) / RFU CCDC152 (11743942_at) / Fold change /veh CCDC152 (11743942_at) / RFU ECM1 (11717891_a_at) / Fold change /veh ECM1 (11717891_a_at) / RFU IL23R (11748794_a_at) / Fold change /veh IL23R (11748794_a_at) / RFU TNFAIP8L3 (11732012_x_at) / Fold change /veh TNFAIP8L3 (11732012_x_at) / RFU MBOAT4 (11741988_at) / Fold change /veh MBOAT4 (11741988_at) / RFU 11764193_at / Fold change /veh 11764193_at / RFU TMEM53 (11763286_at) / Fold change /veh TMEM53 (11763286_at) / RFU MAGEB2 (11727129_at) / Fold change /veh MAGEB2 (11727129_at) / RFU TMEM200A (11744735_a_at) / Fold change /veh TMEM200A (11744735_a_at) / RFU CCDC152 (11751479_a_at) / Fold change /veh CCDC152 (11751479_a_at) / RFU FAM211A (11726209_a_at) / Fold change /veh FAM211A (11726209_a_at) / RFU RGS16 (11746705_a_at) / Fold change /veh RGS16 (11746705_a_at) / RFU VCAN (11755009_s_at) / Fold change /veh VCAN (11755009_s_at) / RFU RHOB (11743442_s_at) / Fold change /veh RHOB (11743442_s_at) / RFU RGS16 (11720943_a_at) / Fold change /veh RGS16 (11720943_a_at) / RFU RGS16 (11720944_at) / Fold change /veh RGS16 (11720944_at) / RFU, VPS4B / Fold change vs veh, VPS4B / RFU, CREB1 / Fold change vs veh, CREB1 / RFU, DNAJC13 / Fold change vs veh, DNAJC13 / RFU, GNAQ / Fold change vs veh, GNAQ / RFU, CDK5R1 / Fold change vs veh, CDK5R1 / RFU, ZRANB3 / Fold change vs veh, ZRANB3 / RFU, CUL4A / Fold change vs veh, CUL4A / RFU, CCNY / Fold change vs veh, CCNY / RFU, UFL1 / Fold change vs veh, UFL1 / RFU, COG3 / Fold change vs veh, COG3 / RFU, DIAPH2 / Fold change vs veh, DIAPH2 / RFU, SKA2 / Fold change vs veh, SKA2 / RFU, AFF3 / Fold change vs veh, AFF3 / RFU, LMF1 / Fold change vs veh, LMF1 / RFU, IPO11 / Fold change vs veh, IPO11 / RFU, DFFB / Fold change vs veh, DFFB / RFU, FOXP1 / Fold change vs veh, FOXP1 / RFU, CARD8 / Fold change vs veh, CARD8 / RFU, STRN3 / Fold change vs veh, STRN3 / RFU, ADK / Fold change vs veh, ADK / RFU, RASSF2 / Fold change vs veh, RASSF2 / RFU, WIPF1 / Fold change vs veh, WIPF1 / RFU, LARP1B / Fold change vs veh, LARP1B / RFU, RASA1 / Fold change vs veh, RASA1 / RFU, RB1 / Fold change vs veh, RB1 / RFU, PPFIA1 / Fold change vs veh, PPFIA1 / RFU, MAT2A / Fold change vs veh, MAT2A / RFU, CCT5 / Fold change vs veh, CCT5 / RFU, WDR92 / Fold change vs veh, WDR92 / RFU, CUX1 / Fold change vs veh, CUX1 / RFU, TTC7A / Fold change vs veh, TTC7A / RFU, TMEM135 / Fold change vs veh, TMEM135 / RFU, DEPTOR / Fold change vs veh, DEPTOR / RFU, CPM / Fold change vs veh, CPM / RFU, DNAJB6 / Fold change vs veh, DNAJB6 / RFU, CACNA2D3 / Fold change vs veh, CACNA2D3 / RFU, DTX4 / Fold change vs veh, DTX4 / RFU, TFCP2 / Fold change vs veh, TFCP2 / RFU, GMCL1 /// GMCL1P1 / Fold change vs veh, GMCL1 /// GMCL1P1 / RFU, AEBP2 / Fold change vs veh, AEBP2 / RFU, SNHG1 /// SNORD22 /// SNORD25 /// SNORD26 /// SNORD27 /// SNORD28 /// SNORD29 /// SNORD31 / Fold change vs veh, SNHG1 /// SNORD22 /// SNORD25 /// SNORD26 /// SNORD27 /// SNORD28 /// SNORD29 /// SNORD31 / Fold change (Aza/veh), C12orf56 (ProbeSet 11735607_a_at) / Fold change (ACY-1035/veh), C12orf56 (ProbeSet 11735607_a_at) / Fold change (Aza/veh), FGFR1OP (ProbeSet 11751329_s_at) / Fold change (ACY-1035/veh), FGFR1OP (ProbeSet 11751329_s_at) / Fold change (Aza/veh), VPS36 (ProbeSet 11739960_a_at) / Fold change (ACY-1035/veh), VPS36 (ProbeSet 11739960_a_at) / RFU SYPL1 (11715823_x_at) / Fold change /veh SYPL1 (11715823_x_at) / RFU IGFBP7 (11715501_s_at) / Fold change /veh IGFBP7 (11715501_s_at) / RFU REEP3 (11722064_at) / Fold change /veh REEP3 (11722064_at) / RFU IGLL1 (11728026_x_at) / Fold change /veh IGLL1 (11728026_x_at): dose or concentration left out as unconfirmed
Conditions: MV-4-11 cells, 48 hours

Nc1ccc(-c2cccs2)cc1NC(=O)c1ccc2c(c1)cc(C1CC1)n2CCN1CCOCC1 [ACY-1035]
RFU WNT11 (11732464_a_at): 8.64 RFU
